Experiment [1] addresses Luciferin 4-monooxygenase (Photinus pyralis, UniProt P08659). The experiment is described as follows: inhibition of purified Photinus pyralis luciferase – biochemical, luminescence, dose response (AID 1891).
Experiment [2] in a line: Luminescence Cell-Based Dose Confirmation HTS to Identify Inhibitors of Platelet Dense Granule Release. [Related pubchem assays: 1663 (Primary HTS), 1678 (Summary of Project)]. It counts as functional.
Experiment [3] has as its system BJ. The experiment is described as follows: BJ-TERT fibroblast viability loss – cell-based, RAS-independent, luminescence, dose response (AID 1933). It counts as functional. The settings on record: Homo sapiens.
Experiment [4] deals with BJ. The experiment is described as follows: cells. Type of experiment: functional, cell-based. The settings on record: Homo sapiens.
Experiment [5] concerns BJ. The experiment is described as follows: BJ-TERT-LT-ST fibroblast viability loss – cell-based, RAS-independent, luminescence, dose response (AID 1935).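 Also: BJ fibroblasts immortalized with TERT plus LT and ST oncogenes.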 It counts as functional. Conditions: Homo sapiens.
Experiment [6] in a line: DRD fibroblast viability loss – cell-based, non-viral oncogenic, luminescence, dose response (AID 1934). Type of experiment: functional. Conditions: Homo sapiens.
In experiment [7] the test system is Streptococcus sp. 'group A'. The experiment is described as follows: Streptococcus pyogenes SK(-)GAS viability under kanamycin – luminescence, BacTiterGlo, confirmation, counter-screen for streptokinase expression inhibitor project, dose response (AID 1900). It counts as functional, organism-based. In general terms: A counterscreen serves to expose hits that act by an unwanted route or on another target.

A further experiment concerns the target T1, Streptokinase A (Streptococcus pyogenes serotype M1, UniProt P10520).
T1 sequence (P10520 whole entry): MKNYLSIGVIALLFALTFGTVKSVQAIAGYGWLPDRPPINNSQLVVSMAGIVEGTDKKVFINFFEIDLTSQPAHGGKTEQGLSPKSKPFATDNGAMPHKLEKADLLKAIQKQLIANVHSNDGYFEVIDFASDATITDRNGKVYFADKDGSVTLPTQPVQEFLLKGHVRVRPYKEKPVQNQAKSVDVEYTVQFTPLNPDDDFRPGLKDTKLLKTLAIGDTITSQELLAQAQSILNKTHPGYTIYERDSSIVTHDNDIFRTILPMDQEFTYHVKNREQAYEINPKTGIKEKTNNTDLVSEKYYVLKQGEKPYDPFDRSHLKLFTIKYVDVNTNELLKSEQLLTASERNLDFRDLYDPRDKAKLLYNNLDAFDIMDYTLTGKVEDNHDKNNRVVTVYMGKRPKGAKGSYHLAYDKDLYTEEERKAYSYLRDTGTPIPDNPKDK
Description: viability-normalized secreted streptokinase activity reduction – plasminogen activation absorbance, OD405, dose response (AID 1914).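 Also: secreted streptokinase activity via plasminogen activation per viability signal from cell pellet.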 Type of experiment: functional, Streptococcus pyogenes M1 GAS.

For a further experiment, the system named is Streptococcus. Description: GAS UMAA2166 growth inhibition – luminescence, BacTiterGlo, counter-screen for streptokinase expression inhibitor project, dose response (AID 1915).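 Also: potency for reduction of bacterial viability or growth.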 It counts as functional, organism-based.
In experiment [8] the target is T2, Corticotropin-releasing factor receptor 2/Corticotropin-releasing factor-binding protein (Homo sapiens, UniProt P24387+Q13324).
T2 sequence (Q13324 whole entry): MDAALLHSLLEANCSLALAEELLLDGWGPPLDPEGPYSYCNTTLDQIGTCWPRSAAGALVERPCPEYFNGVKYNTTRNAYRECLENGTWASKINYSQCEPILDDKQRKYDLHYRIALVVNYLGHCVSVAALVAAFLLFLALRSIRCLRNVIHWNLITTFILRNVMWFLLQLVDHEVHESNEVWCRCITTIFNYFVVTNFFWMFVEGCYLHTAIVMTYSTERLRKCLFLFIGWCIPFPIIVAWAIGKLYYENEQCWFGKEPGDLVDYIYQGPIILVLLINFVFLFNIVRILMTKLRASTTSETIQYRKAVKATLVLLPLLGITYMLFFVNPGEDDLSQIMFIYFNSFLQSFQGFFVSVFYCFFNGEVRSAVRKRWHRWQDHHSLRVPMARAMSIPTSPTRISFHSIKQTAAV
T2 sequence (P24387 whole entry): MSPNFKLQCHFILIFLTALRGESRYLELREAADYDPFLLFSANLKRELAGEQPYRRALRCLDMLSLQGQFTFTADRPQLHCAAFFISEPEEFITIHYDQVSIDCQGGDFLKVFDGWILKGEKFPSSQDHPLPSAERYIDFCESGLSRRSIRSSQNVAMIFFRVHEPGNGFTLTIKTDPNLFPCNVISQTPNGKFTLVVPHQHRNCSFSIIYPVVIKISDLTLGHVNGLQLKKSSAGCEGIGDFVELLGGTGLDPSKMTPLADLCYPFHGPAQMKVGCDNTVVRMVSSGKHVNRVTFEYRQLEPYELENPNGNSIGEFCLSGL
Description: Dose Response confirmation of uHTS hits for small molecule antagonists of the CRF-binding protein and CRF-R2 receptor complex. Type of experiment: functional. The settings on record: read-out: IC50_Mean.

The target in experiment [9] is T2, Corticotropin-releasing factor receptor 2/Corticotropin-releasing factor-binding protein. Description: activators of CRF receptor 2 with binding protein – uHTS hits, confirmation (AID 602473). Type of experiment: functional. Conditions: read-out: EC50_Mean.
Experiment [10] in a line: P. falciparum Dd2 growth inhibitors, dose response, SYBR Green, cherry-picked samples (AID 1159567). Type of experiment: functional, cell-based.
The target of a further experiment is T3, Protein skinhead-1 (Caenorhabditis elegans, UniProt P34707).
T3 sequence (P34707 whole entry): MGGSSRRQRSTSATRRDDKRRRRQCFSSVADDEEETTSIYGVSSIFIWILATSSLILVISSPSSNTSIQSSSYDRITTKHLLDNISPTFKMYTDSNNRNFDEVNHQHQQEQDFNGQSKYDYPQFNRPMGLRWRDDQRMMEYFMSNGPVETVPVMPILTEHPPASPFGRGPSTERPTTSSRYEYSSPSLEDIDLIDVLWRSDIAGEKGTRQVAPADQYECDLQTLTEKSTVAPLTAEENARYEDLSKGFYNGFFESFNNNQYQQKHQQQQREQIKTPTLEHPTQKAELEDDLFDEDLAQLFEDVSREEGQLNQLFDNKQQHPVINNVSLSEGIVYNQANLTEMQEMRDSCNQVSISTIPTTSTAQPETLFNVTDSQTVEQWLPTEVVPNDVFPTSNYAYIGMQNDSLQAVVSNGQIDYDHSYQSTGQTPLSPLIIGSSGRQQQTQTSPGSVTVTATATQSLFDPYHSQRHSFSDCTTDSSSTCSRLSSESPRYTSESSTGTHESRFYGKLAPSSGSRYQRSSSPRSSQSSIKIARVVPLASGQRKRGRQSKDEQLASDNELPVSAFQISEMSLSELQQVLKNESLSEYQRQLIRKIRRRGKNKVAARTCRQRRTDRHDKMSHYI
It counts as functional.

Experiment [11] is described as follows: NIH-3T3 fibroblast cytotoxicity, dose response, cytotoxicity control, cell-based, fluorescence, Alamar Blue, secondary assay (AID 2327).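 Also: NIH-3T3 mouse fibroblasts cultured with fluconazole at 8 µg/mL.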 Type of experiment: functional. (In general: The colour change of resazurin is a common sign of viable cells or microbes.)
Experiment [12] in a line: Luminescence Cell-Based Dose Confirmation HTS to Identify Activators of 5'UTR Stem-Loop Driven Alpha-Synuclein mRNA Translation in H4 Neuroglioblastoma Cells. [Related pubchem assays: 1829 (Project Summary), 1814 (Primary HTS)]. It counts as functional.
Experiment [13] in a line: Luminescence Cell-Based Dose Response HTS to Identify Activators of Luciferase Translation or Activity in H4 […] Cells. [Related pubchem assays: 1829 (Project Summary), 1814 (Primary HTS)]. It counts as functional.
A further experiment relates to H4. Description: Luminescence Cell-Based Dose Response HTS to Identify Activators of 5'UTR Stem-Loop Driven Prion Protein mRNA Translation in H4 Neuroglioblastoma Cells. [Related pubchem assays: 1829 (Project Summary), 1814 (Primary HTS)]. Type of experiment: functional. Conditions: Homo sapiens.
A short description of experiment [14]: fluconazole-exposed Candida albicans growth modulators – fluorescence, retest, confirmation (AID 2467). It counts as functional, cell-based.

The source made the active and inactive calls. Rule as the data show it, for most assays here: actives have a measured EC50 and inactives only a lower limit.

Chain of Luciferin 4-monooxygenase (P08659 whole entry): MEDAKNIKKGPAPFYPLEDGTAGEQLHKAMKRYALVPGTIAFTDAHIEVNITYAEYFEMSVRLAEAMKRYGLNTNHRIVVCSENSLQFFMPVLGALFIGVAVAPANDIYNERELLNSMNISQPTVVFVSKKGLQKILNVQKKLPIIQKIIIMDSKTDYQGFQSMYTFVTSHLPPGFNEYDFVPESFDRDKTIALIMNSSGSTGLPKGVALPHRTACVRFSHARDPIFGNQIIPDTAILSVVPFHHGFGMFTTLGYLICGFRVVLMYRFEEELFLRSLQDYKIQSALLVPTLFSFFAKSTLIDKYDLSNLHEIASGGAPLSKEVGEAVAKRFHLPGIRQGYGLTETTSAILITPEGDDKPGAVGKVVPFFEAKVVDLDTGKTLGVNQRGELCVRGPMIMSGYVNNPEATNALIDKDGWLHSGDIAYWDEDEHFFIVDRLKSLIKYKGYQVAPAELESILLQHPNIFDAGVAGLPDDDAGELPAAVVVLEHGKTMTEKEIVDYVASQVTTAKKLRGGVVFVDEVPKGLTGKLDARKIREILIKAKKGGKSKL

Consider `Cn1cc(S(=O)(=O)N2CCCC2)cc1C(=O)N1CCN(c2cccc(Cl)c2)CC1`, for which the EC50 in experiment [1] and in experiment [2] was > 112 µM (not active) each time.
As to `COc1ccc(-c2cc(C(F)F)n3ncc(C(=O)n4ccnc4C)c3n2)cc1`, the EC50 with BJ [3] was 7.36 µM (inconclusive); in the experiment on BJ [4] it was 15.3 µM (active); in the experiment with BJ [5] it was > 150 µM (inconclusive); in [6], 7.6 µM (active).
As to `COc1ccc(C(=O)Nc2ccccc2C(=O)N/N=C/c2ccco2)cc1`, the EC50 is 0.329 µM (active) in [1] and 4.14 µM (active) in experiment [2].
As to `COc1ccccc1NC1=NC(=O)/C(=C/c2ccc(N(C)C)cc2)S1`, the EC50 was 15.1 µM (active) in experiment [7]; 1.91 µM (active) in the experiment with BJ [3]; > 150 µM (not active) at Streptokinase A; 59 µM (active) in the experiment with BJ [4]; 64.2 µM (inconclusive) with BJ [5]; 1.45 µM (active) in experiment [6]. In the experiment on Streptococcus, the EC50 was 46.7 µM (active).
On to `O=C(Nc1ccc(F)cc1)Nc1ccccc1F`, for which the EC50 was 6.85 µM (active) in experiment [1] and 12.1 µM (active) in experiment [2].
As for `CCOc1ccc(NC(=O)CCNS(=O)(=O)c2cccc3nonc23)cc1`, the IC50 in experiment [8] was > 47.1 µM (inactive). For the same compound, the EC50 in experiment [9] was > 53 µM (inactive).
A word on the AC50: it is the midpoint of the concentration-response curve, whichever way the signal moves. Regarding `CC(C)(O)C#Cc1ccc([C@H]2[C@H](CO)N3CCCCN(C(=O)c4ccc(F)cc4)C[C@@H]23)cc1`, the AC50 in experiment [10] is 15.3 µM (active).
`COc1ccc(NC(=O)c2cn(CCC#N)nc2-c2ccc([N+](=O)[O-])cc2)cc1`: the EC50 (in the experiment on BJ [3]; in the experiment on BJ [4]; in the experiment on BJ [5]; in experiment [6]) was > 150 µM (not active) in each case.
Turning to `c1ccc(-c2cc3nccc(-c4ccccn4)n3n2)cc1`, the values for the IC50 (in [8]; on Protein skinhead-1) were > 47.1 µM (inactive) and 47 µM (active), respectively. Also, the EC50 in [9] is > 53 µM (inactive).
In the case of `C=CCN1C(=O)NC(=O)/C(=C(/CC)NCc2ccc3c(c2)OCO3)C1=O`, the IC50 in [8] is > 47.1 µM (inactive). Also, in [9], the EC50 is > 53 µM (inactive).
For `c1ccc(CN2CCc3nc4ccccc4cc3C2)cc1`, the EC50 in experiment [11] was > 160 µM (inconclusive); in [12] it was 0.215 µM (active); in experiment [13], 33.8 µM (active); in the experiment on H4, 52.7 µM (active); in experiment [14], > 38 µM (not active).
On to `O=C(Cc1ccccc1)Nc1nonc1NC(=O)c1ccccc1`, for which the figures for the EC50 in experiment [11] and in experiment [14] were > 150 µM (inactive) and 3.18 µM (active), respectively.
As for `Cc1ccc(-n2nc(C)c(/C=N/c3ccc(S(=O)(=O)Nc4nccs4)cc3)c2O)cc1`, the EC50 in the experiment with BJ [3] was 12.8 µM (active); in the experiment with BJ [4] it was > 150 µM (not active); in the experiment with BJ [5], > 150 µM (not active); in experiment [6], 24 µM (active).
Take `Cn1c(=O)n(C)c2cc(S(=O)(=O)NCc3ccccc3)ccc21`: the EC50 in experiment [1] and in [2] was > 112 µM (not active) throughout.
For the compound `CCOC(=O)c1sc(NN=C2C(=O)CC(C)(C)CC2=O)c(C(=O)OCC)c1C`, the EC50 is > 112 µM (not active) in experiment [1] and 20.4 µM (active) in [2].
Consider `CN(C)c1ccc2c(c1)[C@@H]1C[C@H](CC(=O)N3CCc4ccccc4C3)O[C@@H](CO)[C@@H]1O2`, for which the concentration at half-maximal activity (AC50) in experiment [10] was 7.8 µM (active).
For the compound `COc1ccccc1NC(=O)c1cc([N+](=O)[O-])ccc1N1CCOCC1`, the EC50 in experiment [1] and in [2] was > 112 µM (not active) throughout.
For `Cc1noc(/C=C/N(C)C)c1S(=O)(=O)N1CCC(C(=O)Nc2ccc(Cl)cc2)CC1`, in experiment [8], the IC50 was > 47.1 µM (inactive). The EC50 in experiment [9] was > 53 µM (inactive).
For the compound `CCCC(=O)Nc1ccc2c(c1)nc(CN1CCN(C(=O)OCC)CC1)n2CC`, the EC50 in the experiment with BJ [3] was 15.4 µM (inconclusive); with BJ [4] it was 122 µM (active); in the experiment on BJ [5], > 75 µM (inconclusive); in [6], 18 µM (active).
With `C=CCCC(=O)N1CCC(n2nccc2NC(=O)c2ccc(OC)cc2)CC1`, the IC50 in experiment [8] is > 47.1 µM (inactive). For the same compound, the EC50 in experiment [9] is > 53 µM (inactive).
In the case of `COc1ccc(C(=O)Nc2ccccc2C(=O)N/N=C/c2ccccc2OC)cc1`, the EC50 was 0.286 µM (active) in [1] and 1.11 µM (active) in experiment [2].
As to `COc1cccc(CN2CC3(CN(Cc4ccccn4)C3)c3c([nH]c4cc(OC)ccc34)[C@H]2CO)c1`, the AC50 in [10] was 5.33 µM (active).
`COc1cc(OC)cc(C(=O)NC2CC3CCC(C2)N3Cc2ccco2)c1` (centres undefined): in experiment [8], the IC50 is > 47.1 µM (inactive). For the same compound, the EC50 in experiment [9] was > 53 µM (inactive).
Taken in the same sequence, the figures for `COC(=O)c1ccc(OCC(O)CN2C(=O)c3ccccc3S2(=O)=O)cc1` (centres undefined) were > 47.1 µM (inactive) and > 53 µM (inactive).
For the compound `CC(OC(=O)c1ccc(-c2ccc(O)cc2)cc1)C(=O)NC1CCCCC1C` (centres undefined), the IC50 in experiment [8] is > 47.1 µM (inactive). For the same compound, the EC50 in [9] was > 53 µM (inactive).
